According to US5196094A, “Separation of 1,1,1-trichloroethane from the lower alcohols by extractive distillation” (priority 1991, dated 1993):

Key:
Assay type in all cases: physicochemical
[1] = Vapor-liquid equilibrium still, separation of 1,1,1-trichloroethane from methanol; settings: 70 g azeotrope, 30 g agent, refluxed eight hours
[2] = Vapor-liquid equilibrium still, separation of 1,1,1-trichloroethane from 2-butanol
[3] = Run in glass perforated plate rectification column, 2-butanol
Procedure: A solution comprising 250 grams of the 1,1,1-trichloroethane-2-butanol azeotrope was placed in the stillpot of the 7.3 theoretical plate rectification column. […] The temperature of the extractive agent as it entered the column was 83° C. After establishing the feed rate of the extractive agent, the heat input to the 1,1,1-trichloroethane-2-butanol in the stillpot as adjusted to give a total reflux rate of 40 ml/min. After 1.5 hours operation, overhead and bottoms samples were collcted and analysed. The overhead analysis was 99.7% 1,1,1-trichloroetahne, 0.3% 2-butanol and the bottoms analysis was 55.1% 1,1,1-trichloroethane, 44.9% 2-butanol. This gives an average relative volatility of 2.15 for each theoretical plate.

[4] = Run in glass perforated plate rectification column, n-propanol
Procedure: A solution comprising 250 grams of the 1,1,1-trichloroethane-n-propanol azeotrope was placed in the stillpot of the 7.3 theoretical plate rectification column. […] The temperature of the extractive agent as it entered the top of the column was 75° C. After establishing the feed rate of the extractive agent, the heat input to the 1,1,1-trichloroethane […] in the stillpot was adjusted to give a total reflux rate of 40 ml/min. After 1.5 hours operation, overhead and bottoms samples were collected and analysed. […] This gives an average relative volatility of 2.33 for each theoretical plate.

[5] = Vapor-liquid equilibrium still, separation of 1,1,1-trichloroethane from n-propanol; settings: 1,1,1-trichloroethane from n-propanol; vapor-liquid equilibrium still
[6] = Vapor-liquid equilibrium still, separation of 1,1,1-trichloroethane from isopropanol
[7] = Run in glass perforated plate rectification column, methanol; settings: 1 h
Procedure: A solution comprising 250 grams of the 1,1,1-trichloroethane-methanol azeotrope was placed in the stillpot of a 7.3 theoretical plate glass perforated plate rectification column. […] The temperature of the extractive agent as it entered the top of the column was 65° C. After establishing the feed rate of the extractive agent, the heat input to the 1,1,1-trichloroethane-methanol in the stillpot was adjusted to give a total reflux rate of 40 ml/min. After 1.5 hours operation, overhead and bottoms samples were collected and analysed by gas chromatography. The overhead analysis was 90.2% 1,1,1-trichloroethane, 9.8% methanol and the bottoms analysis was 0.8% 1,1,1-trichloroethane, 99.2% methanol.

[8] = Run in glass perforated plate rectification column, isopropanol
Procedure: A solution comprising 250 grams of the 1,1,1-trichloroethane-isopropanol azeotrope was placed in the stillpot of the 7.3 theoretical plate rectification column. […] The temperature of the extractive agent as it entered the top of the column was 73° C. After establishing the feed rate of the extractive agent, the heat input to the 1,1,1-trichloroethane-isopropanol in the stillpot was adjusted to give a total reflux rate of 40 ml/min. After 1.5 hours operation, overhead and bottoms samples were collected and analysed.

[9] = Vapor-liquid equilibrium still, separation of 1,1,1-trichloroethane from t-butanol; settings: 1,1,1-trichloroethane from t-butanol
[10] = Run in glass perforated plate rectification column, ethanol; settings: 1 h
Procedure: A solution comprising 250 grams of the 1,1,1-trichloroethane ethanol azeotrope was placed in the stillpot of the 7.3 theoretical plate rectification column. […] The temperature of the extractive agent as it entered the top of the column was 70° C. After establishing the feed rate of the extractive agent, the heat input to the 1,1,1-trichloroethane ethanol in the stillpot was adjusted to give a total reflux rate of 40 ml/min. After 1.5 hours operation, overhead and bottoms samples were collected and analysed.

[11] = Run in glass perforated rectification column, t-butanol
Procedure: A solution comprising 250 grams of the 1,1,1-trichloroethane-t-butanol azeotrope was placed in the stillpot of the 7.3 theoretical plate rectification column. […] The temperature of the extractive agent as it entered the top of the column was 80° C. After establishing the feed rate of the extractive agent, the heat input to the 1,1,1-trichloroethane-t-butanol in the stillpot was adjusted to give a total reflux rate of 40 ml/min. After 1.5 hours operation, overhead and bottoms samples were collected and analysed. The overhead analysis was 95.7% 1,1,1-trichloroethane, 4.3% t-butanol and the bottoms analysis was 33.5% 1,1,1-trichloroethane, 66.5% t-butanol. This gives an average relative volatility of 1.68 for each theoretical plate.

[12] = […], average for each theoretical plate

C[S+](C)[O-] [Dimethylsulfoxide]
liquid composition, 1,1,1-trichloroethane [1]: 11% | liquid composition, methanol [1]: 89% | vapor composition, 1,1,1-trichloroethane [1]: 24.2% | vapor composition, methanol [1]: 75.8% | Relative Volatility [2]: 2.2 | Relative Volatility ([3]; 1 h): 2.1 | Relative Volatility [3, 12]: 2.15 | Weight % 2-Butanol ([3]; bottoms, 1 h): 46.9% | Weight % CH3 Cl3 ([3]; bottoms, 1 h): 53.1% | Weight % 2-Butanol ([3]; overhead, 1 h): 0.4% | Weight % CH3 Cl3 ([3]; overhead, 1 h): 99.6% | Relative Volatility ([4]; 1 h): 2.17 | Relative Volatility [4, 12]: 2.33 | Weight % CH3 CCl3 ([4]; bottoms, 1 h): 40% | Weight % n-Propanol ([4]; bottoms, 1 h): 60% | Weight % CH3 CCl3 ([4]; overhead, 1 h): 99.5% | Weight % n-Propanol ([4]; overhead, 1 h): 0.5% | Relative Volatility [5]: 2.3 | Relative Volatility [6]: 2.5 | Relative Volatility [7]: 2.13 | Weight % CH3 CCl3 ([7]; bottoms): 3.5% | Weight % Methanol ([7]; bottoms): 96.5% | Weight % CH3 CCl3 ([7]; overhead): 90.2% | Weight % Methanol ([7]; overhead): 9.8% | Relative Volatility ([8]; 1 h): 2.5 | Relative Volatility [8, 12]: 2.2 | Weight % CH3 CCl3 ([8]; bottoms, 1 h): 27.8% | Weight % Isopropanol ([8]; bottoms, 1 h): 72.2% | Weight % CH3 CCl3 ([8]; overhead, 1 h): 99.6% | Weight % Isopropanol ([8]; overhead, 1 h): 0.4% | Relative Volatility [9]: 1.7 | Relative Volatility [10]: 2.1 | Weight % CH3 CCl3 ([10]; bottoms): 13.6% | Weight % Ethanol ([10]; bottoms): 86.4% | Weight % CH3 CCl3 ([10]; overhead): 97.3% | Weight % Ethanol ([10]; overhead): 2.7% | Relative Volatility ([11]; 1 h): 1.68 | Relative Volatility [11, 12]: 1.68 | Weight % CH3 CCl3 ([11]; bottoms, 1 h): 43.4% | Weight % t-Butanol ([11]; bottoms, 1 h): 56.6% | Weight % CH3 CCl3 ([11]; overhead, 1 h): 97.1% | Weight % t-Butanol ([11]; overhead, 1 h): 2.9%
